Consider 17 molecules from US6573286B1, “2-(2,6-disubstituted phenyl)-4-aryl-5-alkyl-1,3-oxazoline compounds” (Dow AgroSciences LLC, priority 2002, dated 2003).

What all share (assay type): in vivo
Assay [1] relates to beet armyworm (Spodoptera exigua). Put plainly: Insecticidal test for beet armyworm, treated lepidopteran diet. The note with it: 2nd instar larvae on treated diet, 5 days; for pest or weed control at 400 ppm: Spodoptera exigua, 120 h, read-out: BAW: activity against beet armyworm (% Control rating). How it is done:
(§1) Insecticidal test for tobacco budworm (Heliothis virescens), beet armyworm (Spodoptera exigua), and cabbage looper (Trichoplusia ni). To prepare test solution, the test compound was formulated at 400 ppm in 7.5 mL of 2 acetone:1 tap water. 250 μL of the test solution was pipetted upon the surface of 8 mL of lepidopteran diet (modified Shorey) contained in each of five one-ounce plastic cups (one cup=1 replication). […] After air-drying, the treated leaf discs were placed individually into one-ounce plastic cups. Each dried, treated cotton cotyledon disc was infested with a 2nd instar tobacco budworm larva, and each cabbage leaf disc was infested with a 2nd instar cabbage looper larva. Cups containing the treated substrates and larvae were capped and then held in a growth chamber at 25° C., 50-55% RH, and 14 hr light:10 hr dark for 5 days.

The test system of assay [2] is tobacco budworm (Heliothis virescens). Put plainly: Insecticidal test for tobacco budworm, treated cotton cotyledon leaf disc. The note with it: 2nd instar larvae on dipped cotton cotyledon discs, 5 days; for pest or weed control at 400 ppm: Heliothis virescens, foliar, 120 h, read-out: TBW: activity against tobacco budworm (% Control rating). How it is done:
as §1

The test system of assay [3] is cabbage looper (Trichoplusia ni). In words: Insecticidal test for cabbage looper, treated cabbage leaf disc. The following applies: 2nd instar larvae on dipped cabbage leaf discs, 5 days; for pest or weed control at 400 ppm: Trichoplusia ni, foliar, 120 h, read-out: CL: activity against cabbage looper (% Control rating). How it is done:
as §1

For assay [4], the system named is two-spotted spider mite (Tetranychus urticae). Put plainly: Insecticidal test for two-spotted spider mite, ovicide method. The note with it: ovicide method on cotton leaf discs, 6 days; for pest or weed control at 2.5 ppm: Tetranychus urticae, foliar, 144 h, read-out: SM: activity against two-spotted spider mite (% Control rating). As for the experimental part: Insecticidal test for two-spotted spider mite (Tetranychus urticae) Ovicide Method: Ten adult female two-spotted spider mites were placed on eight 2.2 cm leaf discs of cotton leaf, allowed to oviposit over 24 hours, and thereafter removed. […] Discs were placed on an agar substrate and held at 24° C. and 90% RH for 6 days.

For assay [5], the system named is Sweetpotato Whitefly (Bemisia tabacia). In words: Insecticidal test for Sweetpotato Whitefly, sprayed cotton plants. The note with it: 200 ppm spray, large nymphs counted after 13 days. As for the experimental part: Insecticidal test for Sweetpotato Whitefly (Bemisia tabacia) Four mg of each test compound were dissolved by adding 4 mL of a 90:10 acetone:ethanol solvent mixture to the vial containing the sample compound. This solution was added to 16 mL of water containing 0.05% Tween 20 surfactant to produce 20 mL of a 200 ppm spray solution. Five-week-old cotton plants reared in a greenhouse were stripped of all foliage except for the two uppermost true leaves that were greater than 5 cm in diameter. These plants were then placed into a laboratory colony of whiteflies for two days for oviposition by the colony females. All whiteflies were then removed from the test plants with pressurized air. The spray solution was then applied to the test plants with a hand-held syringe fitted with hollow cone nozzle. One mL spray solution was applied to each leaf top and bottom for a total of 4 mL per plant. Four replications of each test compound utilized a total of 16 mL spray solution. Plants were air dried and then placed in a holding chamber (28° C. and 60% RH) for 13 days. Compound efficacy was evaluated by counting, under an illuminated magnifying glass, the number of large nymphs (3rd-4th instar) per leaf. Percent control based on reduction of large nymphs of a test compound compared to solution-only (no test compound) sprayed plants is reported in Table 1-8.

As for `C[C@H]1OC(c2c(F)cccc2F)=N[C@@H]1c1ccc(-c2ccc(OC(F)(F)F)cc2)cc1` (racemic) [Compound 27, (4R,5R)- and (4S,5S)-2-(2,6-difluorophenyl)-4-(4′-trifluoromethoxy-1,1′-biphenyl-4-yl)-5-methyl-4,5-dihydro-1,3-oxazole], in assay [1] (400 ppm), the “BAW: activity against beet armyworm (% Control rating)” value is on record as “A (90-100)”. Further, the “TBW: activity against tobacco budworm (% Control rating)” value in assay [2] (400 ppm) is “B (80-89)”. The “CL: activity against cabbage looper (% Control rating)” value in assay [3] (400 ppm) is “A (90-100)”. For the same molecule, in assay [4] (2.5 ppm), the “SM: activity against two-spotted spider mite (% Control rating)” value is given as “A (90-100)”.
As to `C[C@@H]1OC(c2c(F)cccc2F)=N[C@H]1c1ccc(-c2ccc(C(F)(F)F)cc2)cc1` (racemic) [Compound 26, (4S,5S)- and (4R,5R)-2-(2,6-difluorophenyl)-5-methyl-4-[4′-(trifluoromethyl)-1,1′-biphenyl-4-yl]-4,5-dihydro-1,3-oxazole], the pest or weed control at 400 ppm in assay [1] and in assay [3] was 90 to 100% in each case. Moreover, in assay [4], the pest or weed control at 2.5 ppm is 90 to 100%.
Take `C[C@H]1OC(c2c(F)cccc2F)=NC1c1ccc(-c2ccc3c(c2)OC(F)(F)O3)cc1` (mixture of isomers) [Compound 13, (4R,5S)- and (4S,5R)-4-[4-(2,2-difluoro-1,3-benzodioxol-5-yl)phenyl]-2-(2,6-difluorophenyl)-5-methyl-4,5-dihydro-1,3-oxazole]: the pest or weed control at 400 ppm in assay [2] is < 50%; in assay [3], 90 to 100%.
Regarding `Cc1ccccc1C1=N[C@H](c2ccc(Br)cc2)[C@H](C)O1` (racemic) [Compound 17, (4R,5S)- and (4S,5R)-4-(4-bromophenyl)-2-(2-methyl)-5-methyl-4,5-dihydro-1,3-oxazole], the pest or weed control at 400 ppm in assay [2] and in assay [3] was < 50% in each case.
As for `C[C@@H]1OC(c2c(F)cccc2F)=N[C@H]1c1ccc(-c2ccccc2F)cc1` (racemic) [Compound 31, (4S,5S)- and (4R,5R)-2-(2,6-difluorophenyl)-4-(2′-fluoro-1,1′-biphenyl-4-yl)-5-methyl-4,5-dihydro-1,3-oxazole], in assay [3], the pest or weed control at 400 ppm is 90 to 100%.
Regarding `C[C@H]1OC(c2c(F)cccc2F)=N[C@H]1c1ccc(-c2ccc(OC(F)(F)F)cc2)cc1` (racemic) [Compound 6, (4S,5R)- and (4R,5S)-2-(2,6-difluorophenyl)-4-(4′-trifluoromethoxy-1,1′-biphenyl-4-yl)-5-methyl-4,5-dihydro-1,3-oxazole], the “WF: activity against whitefly (% Control rating)” value in assay [5] is given as “B (80-89)”.
With `Cc1ccc(-c2ccc([C@@H]3N=C(c4c(F)cccc4F)O[C@@H]3C)cc2)cc1C` (racemic) [Compound 8, (4S,5R)- and (4R,5S)-2-(2,6-difluorophenyl)-4-(3′,4′-dimethyl-1,1′-biphenyl-4-yl)-5-methyl-4,5-dihydro-1,3-oxazole], the pest or weed control at 400 ppm lay in the range of 90 to 100% in assay [1], 60 to 69% in assay [2] and 90 to 100% in assay [3].
For the molecule `C[C@@H]1OC(c2c(F)cccc2F)=N[C@@H]1c1ccc(-c2ccc(C(F)(F)F)cc2)cc1` (mixture of isomers) [Compound 5, (4R,5S)- and 4S,5R)-2-(2,6-difluorophenyl)-5-methyl-4-[4′-(trifluoromethyl)-1,1′-biphenyl-4-yl]-4,5-dihydro-1,3-oxazole], the pest or weed control at 400 ppm in assay [1] and in assay [3] was 90 to 100% in each case. The pest or weed control at 2.5 ppm in assay [4] was in the range of 90 to 100%.
With `Cc1ccc(-c2ccc([C@@H]3N=C(c4c(F)cccc4F)O[C@H]3C)cc2)cc1C` (racemic) [Compound 29, (4S,5S)- and (4R,5R)-2-(2,6-difluorophenyl)-4-(3′,4′-dimethyl-1,1′-biphenyl-4-yl)-5-methyl-4,5-dihydro-1,3-oxazole], the pest or weed control at 400 ppm in assay [3] fell in the range of 90 to 100%.
Consider `C[C@H]1OC(c2c(F)cccc2F)=N[C@@H]1c1ccc(-c2ccc(OC(F)(F)F)cc2)cc1` [Compound 53, (4R,5R)-2-(2,6-difluorophenyl)-5-methyl-4-[4′-(trifluoromethoxy)-1,1′-biphenyl-4-yl]-4,5-dihydro-1,3-oxazole], for which the pest or weed control at 400 ppm in assay [1] and in assay [3] was 90 to 100% each time. Besides, the pest or weed control at 2.5 ppm in assay [4] is 90 to 100%.
`C[C@@H]1OC(c2c(F)cccc2F)=N[C@@H]1c1ccc(-c2ccccc2F)cc1` (racemic) [Compound 15, (4R,5S)- and (4S,5R)-2-(2,6-difluorophenyl)-4-(2′-fluoro-1,1′-biphenyl-4-yl)-5-methyl-4,5-dihydro-1,3-oxazole]: in assay [3], the pest or weed control at 400 ppm lay within 90 to 100%.
`C[C@H]1OC(c2c(F)cccc2F)=N[C@@H]1c1ccccc1` (racemic) [Compound 35, (4R,5R)- and (4S,5S)-4-phenyl-2-(2,6-difluorophenyl)-5-methyl-4,5-dihydro-1,3-oxazole]: the pest or weed control at 400 ppm in assay [2] and in assay [3] was < 50% in each case.
For the molecule `C[C@H]1OC(c2c(F)cccc2F)=N[C@H]1c1ccc(-c2ccc(OC(F)(F)F)cc2)cc1` (stereo in doubt) [Compound 49, (4S,5R)-2-(2,6-difluorophenyl)-5-methyl-4-[4′-(trifluoromethoxy)-1,1′-biphenyl-4-yl]-4,5-dihydro-1,3-oxazole], the pest or weed control at 400 ppm in assay [1] was 90 to 100%; in assay [2], 80 to 89%; in assay [3] it was 90 to 100%. Moreover, the pest or weed control at 200 ppm in assay [5] (Bemisia, 312 h, read-out: WF: activity against whitefly (% Control rating)) is 80 to 89%. In addition, in assay [4], the pest or weed control at 2.5 ppm was 90 to 100%.
Regarding `C[C@H]1OC(c2c(F)cccc2Cl)=N[C@@H]1c1ccc(Br)cc1` (racemic) [Compound 23, (4R,5R)- and (4S,5S)-4-(4-bromophenyl)-2-(2-chloro-6-fluorophenyl)-5-methyl-4,5-dihydro-1,3-oxazole], the figures for the pest or weed control at 400 ppm in assay [2] and in assay [3] were 80 to 89% and < 50%, respectively. In assay [4], the pest or weed control at 2.5 ppm lay in the range of 90 to 100%.
Consider `CCOc1ccc(-c2ccc([C@@H]3N=C(c4c(F)cccc4F)O[C@H]3C)cc2)cc1` (racemic) [Compound 33, (4S,5S)- and (4R,5R)-2-(2,6-difluorophenyl)-4-(4′-ethoxy-1,1′-biphenyl-4-yl)-5-methyl-4,5-dihydro-1,3-oxazole], for which the pest or weed control at 400 ppm in assay [1] fell in the range of 90 to 100%; in assay [2], 80 to 89%; in assay [3], 90 to 100%.
For `C[C@@H]1OC(c2c(F)cccc2F)=N[C@H]1c1ccc(-c2ccc(OC(F)(F)F)cc2)cc1` [Compound 47, (4S,5S)-2-(2,6-difluorophenyl)-5-methyl-4-[4′-(trifluoromethoxy)-1,1′-biphenyl-4-yl]-4,5-dihydro-1,3-oxazole], the pest or weed control at 400 ppm in assay [1] and in assay [3] was 90 to 100% each time. For the same molecule, the pest or weed control at 2.5 ppm in assay [4] lay within 90 to 100%.
As for `CCOc1ccc(-c2ccc([C@H]3N=C(c4c(F)cccc4F)O[C@H]3C)cc2)cc1` (racemic) [Compound 12, (4R,5S)- and (4S,5R)-2-(2,6-difluorophenyl)-4-(4′-ethoxy-1,1′-biphenyl-4-yl)-5-methyl-4,5-dihydro-1,3-oxazole], the pest or weed control at 400 ppm in assay [1] lay in the range of 90 to 100%; in assay [2], 80 to 89%; in assay [3] it was 90 to 100%.
